The values below come from patent US8354436B2 (4SC Discovery GmbH, priority 2011, dated 2013).

Read-outs that look alike come from different tables or passages of the source. Where only a bound is given, the exact number is not on record here.

Common to all, as to format: cell-based
Holding throughout (settings): 48 hours

In one assay the test system is IL-17FF. As to the kind of experiment: IL-17FF production by PHA-stimulated human PBMC (human IL-17F ELI-Pair). The gist of the method: (§1)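 Compounds are titrated semilogarithmically for IC50, or tested at 10, 1, 0.1 and 0.01 μM for screening, on healthy-donor PBMC activated with 2 μg/ml PHA. After 48 h, secreted cytokine is measured in supernatant.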
For the next assay, the system named is IFN-γ. Kind of assay: IFN-γ production by PHA-stimulated human PBMC (OptEIA human IFN-g ELISA). The gist of the method: as §1
(In general: ELISA stands for enzyme-linked immunosorbent assay.)

Assay [1] relates to PBMC from healthy human donors. As to the kind of experiment: T cell proliferation assay (PHA-stimulated human PBMC, BrdU ELISA). The gist of the method:
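Proliferation was quantified by BrdU ELISA 48 hours after starting culture of 1×10⁵ human PBMC per well with test compound and 2 μg/ml phytohaemagglutinin. Cells came from healthy donors via Ficoll separation and were kept in RPMI1640 with 10% dialysed heat-inactivated FCS.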

Setting [2] is: PHA-stimulated human PBMC, column B, read-out: IC50 (IL-17FF).
The mark [3] stands for this setting: PHA-stimulated human PBMC, column C, read-out: IC50 (IFNγ).
Setting [4] is: PHA-stimulated human PBMC, column D, read-out: IC50 (Tcell proliferation).
The mark [5] stands for this setting: human PBMC, 2 μg/ml PHA, read-out: B: IC50 (IL-17FF).
Where [6] appears, read: human PBMC, 2 μg/ml PHA, read-out: C: IC50 (IFNγ).
Where [7] appears, read: human PBMC, 2 μg/ml PHA, read-out: D: IC50 (Tcell proliferation).

For `CNC(=O)c1c(-c2c(F)cccc2Cl)noc1-c1cnn(-c2ccc(F)cc2)c1C(F)(F)F` [Example I-55, 3-(2-chloro-6-fluorophenyl)-5-(1-(4-fluorophenyl)-5-(trifluoromethyl)-1H-pyrazol-4-yl)-N-methylisoxazole-4-carboxamide], the IC50 (in the assay on IL-17FF (setting [2]); in the assay with IFN-γ (setting [3]); in assay [1] (setting [4])) was 100 to 1000 nM each time.

As for `CCOC(=O)c1c(-c2c(F)cccc2Cl)noc1-c1cnn(Cc2ccccc2F)c1C(F)(F)F` [IB-80, ethyl 3-(2-chloro-6-fluorophenyl)-5-(1-(2-fluorobenzyl)-5-(trifluoromethyl)-1H-pyrazol-4-yl)isoxazole-4-carboxylate], the IC50 (with IL-17FF (setting [2]); in the assay on IFN-γ (setting [3]); in assay [1] (setting [4])) was 1000 to 10000 nM in each case.

For `Fc1ccccc1-n1ncc(-c2onc(-c3c(F)cccc3Cl)c2-c2nnco2)c1C(F)(F)F` [Example 15, 2-(3-(2-chloro-6-fluorophenyl)-5-(1-(2-fluorophenyl)-5-(trifluoromethyl)-1H-pyrazol-4-yl)isoxazol-4-yl)-1,3,4-oxadiazole], the IC50 (in the assay on IL-17FF (setting [5]); in the assay on IFN-γ (setting [6]); in assay [1] (setting [7])) was 100 to 1000 nM each time.

Turning to `COC(=O)Nc1c(-c2c(F)cccc2Cl)noc1-c1cnn(-c2cccc(F)c2)c1C(F)(F)F` [Example I-138, methyl 3-(2-chloro-6-fluorophenyl)-5-[1-(3-fluorophenyl)-5-(trifluoromethyl)-1H-pyrazol-4-yl]isoxazol-4-ylcarbamate], the IC50 (in the assay with IL-17FF (setting [2]); in the assay on IFN-γ (setting [3]); in assay [1] (setting [4])) was 100 to 1000 nM in each case.

`COC(=O)c1c(-c2c(F)cccc2Cl)noc1-c1cnn(-c2ccncc2)c1C(F)(F)F` [IB-69, methyl 3-(2-chloro-6-fluorophenyl)-5-(1-(pyridin-4-yl)-5-(trifluoromethyl)-1H-pyrazol-4-yl)isoxazole-4-carboxylate]: the IC50 (in the assay on IL-17FF (setting [2]); with IFN-γ (setting [3]); in assay [1] (setting [4])) was 10 to 100 nM in each case.

With `Nc1c(-c2c(F)cccc2Cl)noc1-c1cnn(-c2cccc(F)c2)c1C(F)(F)F` [Example I-117, 3-(2-chloro-6-fluorophenyl)-5-(1-(3-fluorophenyl)-5-(trifluoromethyl)-1H-pyrazol-4-yl)isoxazol-4-amine], the IC50 (with IL-17FF (setting [2]); in the assay on IFN-γ (setting [3]); in assay [1] (setting [4])) was 100 to 1000 nM each time.

In the case of `COC(=O)c1c(-c2c(F)cccc2Cl)noc1-c1cnn(-c2cccc(N)c2)c1C(F)(F)F` [IB-92, methyl 5-(1-(3-aminophenyl)-5-(trifluoromethyl)-1H-pyrazol-4-yl)-3-(2-chloro-6-fluorophenyl)isoxazole-4-carboxylate], the IC50 (in the assay with IL-17FF (setting [2]); in the assay on IFN-γ (setting [3]); in assay [1] (setting [4])) was 10 to 100 nM in each case.

Take `CNC(=O)c1c(-c2ccccc2Cl)noc1-c1cnn(-c2cccc(Cl)c2)c1C(F)(F)F` [IB-63, 3-(2-chlorophenyl)-5-(1-(3-chlorophenyl)-5-(trifluoromethyl)-1H-pyrazol-4-yl)-N-methylisoxazole-4-carboxamide]: the IC50 (in the assay with IL-17FF (setting [2]); in the assay on IFN-γ (setting [3]); in assay [1] (setting [4])) was 100 to 1000 nM throughout.

Turning to `Fc1ccccc1-n1ncc(-c2onc(-c3c(F)cccc3Cl)c2-c2nccs2)c1C(F)(F)F` [Example B-30, 3-(2-chloro-6-fluorophenyl)-5-(1-(2-fluorophenyl)-5-(trifluoromethyl)-1H-pyrazol-4-yl)-4-(thiazol-2-yl)isoxazole], the IC50 (in the assay on IL-17FF (setting [5]); with IFN-γ (setting [6]); in assay [1] (setting [7])) was 10 to 100 nM each time.

Take `CCOC(=O)c1c(-c2ccccc2F)noc1-c1cnn(-c2cccc(F)c2)c1C(F)(F)F` [Example I-90, ethyl 3-(2-fluorophenyl)-5-(1-(3-fluorophenyl)-5-(trifluoromethyl)-1H-pyrazol-4-yl)isoxazole-4-carboxylate]: the figures for the IC50 (in the assay with IL-17FF (setting [2]); in the assay with IFN-γ (setting [3]); in assay [1] (setting [4])) were 100 to 1000 nM, 10 to 100 nM and 100 to 1000 nM, respectively.

Turning to `CCOC(=O)c1c(-c2ccc(Cl)cc2Cl)noc1-c1cnn(-c2cccc(F)c2)c1C(F)(F)F` [Example I-112, ethyl 3-(2,4-dichlorophenyl)-5-(1-(3-fluorophenyl)-5-(trifluoromethyl)-1H-pyrazol-4-yl)isoxazole-4-carboxylate], the values for the IC50 (in the assay with IL-17FF (setting [2]); in the assay with IFN-γ (setting [3]); in assay [1] (setting [4])) were 100 to 1000 nM, 10 to 100 nM and 100 to 1000 nM, respectively.

As to `CC(C)OC(=O)c1c(-c2c(F)cccc2Cl)noc1-c1cnn(-c2ccccc2Cl)c1C(F)(F)F` [IB-60], the IC50 (in the assay with IL-17FF (setting [2]); in the assay with IFN-γ (setting [3]); in assay [1] (setting [4])) was 1000 to 10000 nM in each case.

Turning to `CCOC(=O)c1c(-c2c(F)cccc2Cl)noc1-c1cnn(CCN2CCOCC2)c1C(F)(F)F` [IB-97, ethyl 3-(2-chloro-6-fluorophenyl)-5-(1-(2-morpholinoethyl)-5-(trifluoromethyl)-1H-pyrazol-4-yl)isoxazole-4-carboxylate], the results for the IC50 (with IL-17FF (setting [2]); with IFN-γ (setting [3]); in assay [1] (setting [4])) were 100 to 1000 nM, 100 to 1000 nM and 1000 to 10000 nM, respectively.

As for `Cc1nnc(-c2c(-c3c(F)cccc3Cl)noc2-c2cnn(-c3ccncc3)c2C(F)(F)F)s1` [Example B-22, 3-(2-chloro-6-fluorophenyl)-4-(5-methyl-1,3,4-thiadiazol-2-yl)-5-(1-(pyridin-4-yl)-5-(trifluoromethyl)-1H-pyrazol-4-yl)isoxazole], the IC50 with IL-17FF (setting [5]) fell in the range of 100 to 1000 nM; in the assay with IFN-γ (setting [6]), 10 to 100 nM; in assay [1] (setting [7]) it was 100 to 1000 nM.

Turning to `Fc1cccc(-n2ncc(-c3onc(-c4c(F)cccc4Cl)c3-c3nnco3)c2C(F)(F)F)c1` [Example 7], the IC50 was less than 10 nM with IL-17FF (setting [5]), less than 10 nM in the assay with IFN-γ (setting [6]) and 10 to 100 nM in assay [1] (setting [7]).

Consider `CCOC(=O)c1c(-c2c(Cl)cncc2Cl)noc1-c1cnn(-c2cccc(NC(C)=O)c2)c1C(F)(F)F` [IB-11, ethyl 5-(1-(3-acetamidophenyl)-5-(trifluoromethyl)-1H-pyrazol-4-yl)-3-(3,5-dichloropyridin-4-yl)isoxazole-4-carboxylate], for which the IC50 in the assay with IL-17FF (setting [2]) was in the range of 10 to 100 nM; with IFN-γ (setting [3]), 10 to 100 nM; in assay [1] (setting [4]), 100 to 1000 nM.

Consider `CCOC(=O)c1c(-c2ccncc2F)noc1-c1cnn(-c2ccccc2Cl)c1C(F)(F)F` [IB-13, ethyl 5-(1-(2-chlorophenyl)-5-(trifluoromethyl)-1H-pyrazol-4-yl)-3-(3-fluoropyridin-4-yl)isoxazole-4-carboxylate], for which the IC50 (in the assay on IL-17FF (setting [2]); in the assay on IFN-γ (setting [3]); in assay [1] (setting [4])) was 10 to 100 nM throughout.

For the compound `CNC(=O)c1c(-c2c(F)cccc2Cl)noc1-c1cnn(-c2ccccc2)c1C(F)(F)F` [Example I-59, 3-(2-chloro-6-fluorophenyl)-N-methyl-5-(1-phenyl-5-(trifluoromethyl)-1H-pyrazol-4-yl)isoxazole-4-carboxamide], the IC50 (in the assay with IL-17FF (setting [2]); in the assay on IFN-γ (setting [3]); in assay [1] (setting [4])) was 100 to 1000 nM throughout.

In the case of `CSC(=O)c1c(-c2c(F)cccc2Cl)noc1-c1cnn(-c2ccccc2F)c1C(F)(F)F` [Example I-130, S-methyl 3-(2-chloro-6-fluorophenyl)-5-(1-(2-fluorophenyl)-5-(trifluoromethyl)-1H-pyrazol-4-yl)isoxazole-4-carbothioate], the IC50 (in the assay on IL-17FF (setting [2]); in the assay with IFN-γ (setting [3]); in assay [1] (setting [4])) was less than 10 nM in each case.

For `Fc1cccc(-n2ncc(-c3onc(-c4c(F)cccc4Cl)c3Br)c2C(F)(F)F)c1` [Example I-137, 4-bromo-3-(2-chloro-6-fluorophenyl)-5-(1-(3-fluorophenyl)-5-(trifluoromethyl)-1H-pyrazol-4-yl)isoxazole], the values for the IC50 (with IL-17FF (setting [2]); in the assay with IFN-γ (setting [3]); in assay [1] (setting [4])) were 100 to 1000 nM, 100 to 1000 nM and 10 to 100 nM, respectively.

On to `Fc1cccc(-n2ncc(-c3onc(-c4c(F)cccc4Cl)c3-c3ccco3)c2C(F)(F)F)c1` [Example 17, 3-(2-chloro-6-fluorophenyl)-5-(1-(3-fluorophenyl)-5-(trifluoromethyl)-1H-pyrazol-4-yl)-4-(furan-2-yl)isoxazole], for which the IC50 (with IL-17FF (setting [5]); in the assay with IFN-γ (setting [6]); in assay [1] (setting [7])) was less than 10 nM in each case.

In the case of `Fc1cccc(Cl)c1-c1noc(-c2cnn(-c3cccc(Cl)c3)c2C(F)(F)F)c1-c1cnco1` [Example 8, 3-(2-chloro-6-fluorophenyl)-5-(1-(3-chlorophenyl)-5-(trifluoromethyl)-1H-pyrazol-4-yl)-4-(oxazol-5-yl)isoxazole], the IC50 (in the assay with IL-17FF (setting [5]); in the assay on IFN-γ (setting [6]); in assay [1] (setting [7])) was less than 10 nM each time.

`Fc1cccc(-n2ncc(-c3onc(-c4c(F)cccc4Cl)c3-c3ccsc3)c2C(F)(F)F)c1` [Example 16, 3-(2-chloro-6-fluorophenyl)-5-(1-(3-fluorophenyl)-5-(trifluoromethyl)-1H-pyrazol-4-yl)-4-(thiophen-3-yl)isoxazole]: the IC50 is 100 to 1000 nM in the assay on IL-17FF (setting [5]), less than 10 nM in the assay with IFN-γ (setting [6]) and less than 10 nM in assay [1] (setting [7]).

`Fc1cccc(Cl)c1-c1noc(-c2cnn(-c3ccncc3)c2C(F)(F)F)c1-c1ccoc1` [Example B-24, 3-(2-chloro-6-fluorophenyl)-4-(furan-3-yl)-5-(1-(pyridin-4-yl)-5-(trifluoromethyl)-1H-pyrazol-4-yl)isoxazole]: the IC50 (in the assay with IL-17FF (setting [5]); in the assay with IFN-γ (setting [6]); in assay [1] (setting [7])) was 10 to 100 nM throughout.
